Where a SMILES comes first, the peptide text is derived from it. The star is where a group is joined. X1 = O=C(O)[C@H]1CSC(c2nc3ccc(OCc4ccc(N*)cc4)cc3s2)=N1
Assays:
[1] = Baseline uptake and biodistribution study in healthy mice; type: in vivo, mouse; details: for baseline bioluminescence distribution: healthy Fluc+ BALB/c mice, D-luciferin 3 mg i.p., GBLI2 200 μg i.v. retro-orbital
[2] = tested on: untransduced activated CD8+ T cells; assay: Cellular uptake assay; type: cell-based, mouse; details: 5 μM, pre-incubation 30 min, 2.5 h at 4 or 37 °C, flow cytometry
A20Luc+ cells = assay: Cell viability assay; type: cell-based, mouse; details: 5 μM – 100 μM, 37 °C, 3.5 h, absorbance at 490 nm
[3] = tested on: activated untransduced CD8+ T cells; assay: Cell viability assay; type: cell-based, mouse; details: 5 μM – 100 μM, 37 °C, 3.5 h, absorbance at 490 nm
CAR T cells = assay: Cell viability assay; type: cell-based, mouse; details: 5 μM – 100 μM, 37 °C, 3.5 h, absorbance at 490 nm
[4] = DLS size distribution and zeta potential of nanoaggregates; type: physicochemical; details: without gzmB cleavage

| Molecule | baseline bioluminescence distribution [1] | G-SNAT-Cy5 uptake at 4 °C versus 37 °C (MFI-Cy5 of viable cells) [2] | cell viability (MTS) (A20Luc+ cells) | cell viability (MTS) [3] | cell viability (MTS) (CAR T cells) | organ distribution of fluorescence after dissection ([1]; 5 nmol retro orbital, 1 h post i.v. injection, organ imaging, n = 3) | DLS signal of G-SNAT uncleaved by gzmB [4] |
| --- | --- | --- | --- | --- | --- | --- | --- |
| O=C([O-])[C@H]1CSC(c2nc3ccc(O)cc3s2)=N1.[K+] [D-luciferin, D-luciferin, potassium salt] | mainly restricted to the abdomen | – | – | – | – | – | – |
| CCSSC[C@H](NC(=O)[C@H](CC(=O)O)NC(=O)[C@H](Cc1ccccc1)NC(=O)[C@H](CCC(=O)O)NC(=O)[C@@H](NC(C)=O)[C@@H](C)CC)C(=O)NCC(=O)N[C@@H](Cc1cn(CCCNC(=O)CCCCC[N+]2=C(/C=C/C=C/C=C3/N(C)c4ccc(S(=O)(=O)[O-])cc4C3(C)C)C(C)(C)c3cc(S(=O)(=O)O)ccc32)nn1)C(=O)NCc1ccc(C(=O)NCCCOc2cnc(C#N)nc2)cc1 [G-SNAT-Cy5] | – | significantly attenuated | well tolerated | well tolerated | well tolerated | mainly associated with the gastrointestinal tract | – |
| CC[C@H](C)[C@H](NC(C)=O)C(=O)N[C@@H](CCC(=O)O)C(=O)N[C@@H](Cc1ccccc1)C(=O)N[C@@H](CC(=O)O)C(=O)Nc1ccc(COc2ccc3nc(C4=N[C@@H](C(=O)O)CS4)sc3c2)cc1 [GBLI2] (Ac-IEFD-X1) | highly concentrated in the spleen | – | – | – | – | – | – |
| (4S,10R,13S,16S,19S)-19-((2S,3S)-2-acetamido-3-methylpentanamido)-16-benzyl-13(carboxymethyl)-1-(4-((3-((2-cyanopyrimidin-5-yl)oxy)propyl)carbamoyl)phenyl)-10-((ethylsulfinothioyl)methyl)-3,6,9,12,15,18-hexaoxo-4-(prop-2-yn-1-yl)-2,5,8,11,14,17-hexaazadocosan-22-oic acid [G-SNAT] | – | – | well tolerated | well tolerated | well tolerated | – | No DLS signal could be detected |
